In US9592223B2, “Small molecule inhibitors of MALT1” (Cornell University, priority 2012, dated 2017):
“Also recorded” adds a separate entry of the source.

Assays:
[1] = target: T1, LZ-MALT1 (MALT1 (340-789) fused with a leucine zipper dimerization motif) (Homo sapiens, UniProt Q9UDY8); assay: LZ-MALT1 fluorescence assay (Ac-LRSR-AMC cleavage), screening and concentration response; type: biochemical; conditions: concentration response assay, 0.122 μM to 62.5 μM; read-out: IC50 (biochemical activity, in vitro)
T1 construct: His tag (N); made in house; host or cells: E. coli
Description: We reasoned that MALT1 small-molecule inhibitors might be useful chemical tools for studying MALT1 biology and treating MALT1 addicted tumors. However, full-length MALT1 and its paracaspase domain (amino acids 340-789) are naturally present in physiological solutions as a monomer, which has very low proteolytic activity. Caspases generally must homodimerize for maximal catalytic activity (Pop et al., 2006; Walker et al., 1994; Yin et al., 2006) and accordingly the recently reported structures of the paracaspase domain of MALT1 in complex with a peptide inhibitor are dimeric (Wiesmann et al., 2012; Yu et al., 2011). […]
Ac-LRSR-AMC was used as substrate and reactions were measured with excitation/emission wavelengths of 360/465 nm. […] The final percent inhibition was calculated with the formula: {[fluorescencetest compound(T2-T1)−fluorescenceneg ctrl(T2−T1)]/[fluorescencepos ctrl(T2−T1)−fluorescenceneg ctrl(T2−T1)]}×100. […]
The screening consisted of a 20 μl reaction in 384-well black plates (Greiner Bio One, Wemmel, Belgium, catalogue #784076) with 100 nM LZ-MALT1, 200 μM Ac-LRSR-AMC, and 12.5 μM test compound in buffer A (20 mM HEPES pH 7.5, 10 mM KCl, 1.5 mM MgCl2, 1 mM EDTA, 1 mM DTT, 0.01% Triton X-100). The reactions were measured with excitation/emission wavelengths of 360/465 nm using Envision Multilabel Reader (Perkin-Elmer, Waltham, Mass.). […]

[2] = target: Caspase-3 (Homo sapiens, UniProt P42574); assay: Caspase selectivity; type: biochemical
[3] = test system: primary human non-GCB DLBCL cells; assay: Primary human DLBCL cells ex vivo, non-GCB cases, Trypan blue; type: cell-based; conditions: 0.8 μM, 48 hr
Method: After 48 hr exposure, cell number and viability were determined using Trypan blue.
Patient de-identified tissues were obtained in accordance with the guidelines and approval of the Weill Cornell Medical College Review Board. Patient samples were processed as previously described (Cerchietti et al., 2010). Briefly, single cell suspensions from lymph node biopsies were obtained by physical disruption of tissues followed by cell density gradient separation (Fico/Lite LymphoH, Atlanta Biologicals, Lawrenceville, Ga.). Cell number and viability were determined by Trypan blue exclusion. Primary DLBCL cells were cultured in 96-well plates. Cells were grown in advanced RPMI medium with 20% FBS supplemented with antibiotics for 48 hours. […] After 48 hr of exposure, viability was determined by using Trypan blue (Sigma). All samples were normalized to their own replicate control. Statistical significance was calculated using paired T-test.

[4] = target: T2, MALT1 paracaspase domain (329-728) (Homo sapiens, UniProt Q9UDY8); assay: LC-MS covalent modification; type: binding
T2 construct: MALT1 paracaspase domain (329-728) presented a major peak at 55,988.4 Da
Method: The final results were ranked on the predicted binding free energy and the cluster size for each docking conformation.
HPLC/ESI-MS experiments were carried out on 5 μl sample at 1 mg/ml protein concentration. Separation of proteins was performed on a HP 1100 system (Hewlett Packard, Palo Alto, Calif., USA) employing a 1 mm×150 mm LC Packings column packed with POROS R1/H (Perseptive Biosystems, Foster City, Calif., USA). The column was kept at 80° C. Samples were injected onto the column using a CTC PAL autosampler (CTC, Zwingen Switzerland) fitted with a Valco model C6UW HPLC valve (Valco, Houston, Tex., USA) and a 10 μl injection loop. HPLC was controlled by MassLynx software (Micromass, Manchester, UK). UV detection was performed at 214 nm. Eluent A was water containing 0.05% TFA. Eluent B was a 1:9 mixture of water:acetonitrile containing 0.045% TFA. A gradient from 20% B to 90% B was run in 20 minutes. The flow rate was typically 60 μl/min. The total flow from the LC system was introduced into the UV detection cell prior to introduction in the ESI source. The HPLC system was controlled and the signal from the UV detector was processed using MassLynx software. […] Data were recorded and processed using MassLynx software. […]

T2 sequence (Q9UDY8 329-728): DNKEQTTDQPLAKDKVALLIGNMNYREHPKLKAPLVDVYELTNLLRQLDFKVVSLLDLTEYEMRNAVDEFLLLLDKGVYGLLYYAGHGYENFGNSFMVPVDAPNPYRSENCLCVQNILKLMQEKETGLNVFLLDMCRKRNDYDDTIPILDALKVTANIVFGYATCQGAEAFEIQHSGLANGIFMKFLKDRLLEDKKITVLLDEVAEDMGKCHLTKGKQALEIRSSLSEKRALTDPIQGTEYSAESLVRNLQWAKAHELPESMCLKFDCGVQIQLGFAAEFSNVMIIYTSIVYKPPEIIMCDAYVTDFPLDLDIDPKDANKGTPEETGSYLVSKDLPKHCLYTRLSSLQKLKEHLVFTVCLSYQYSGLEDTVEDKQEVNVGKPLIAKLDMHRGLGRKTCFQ
T1 sequence (Q9UDY8 with tags, fused parts or gaps limits assumed): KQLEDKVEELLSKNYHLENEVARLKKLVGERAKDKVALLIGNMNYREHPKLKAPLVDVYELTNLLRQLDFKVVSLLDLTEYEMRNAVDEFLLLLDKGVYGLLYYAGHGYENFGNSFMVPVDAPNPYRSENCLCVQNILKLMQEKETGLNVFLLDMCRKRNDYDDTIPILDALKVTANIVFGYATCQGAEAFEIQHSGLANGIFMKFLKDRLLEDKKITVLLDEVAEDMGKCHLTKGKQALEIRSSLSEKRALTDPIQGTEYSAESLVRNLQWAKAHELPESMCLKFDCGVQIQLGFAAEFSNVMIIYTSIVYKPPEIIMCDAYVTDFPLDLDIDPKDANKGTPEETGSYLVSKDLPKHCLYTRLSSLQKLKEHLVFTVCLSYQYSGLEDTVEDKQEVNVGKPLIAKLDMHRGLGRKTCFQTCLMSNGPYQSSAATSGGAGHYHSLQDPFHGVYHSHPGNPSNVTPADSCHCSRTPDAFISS
Caspase-3, sequence (P42574 29-175 limits assumed, species assumed): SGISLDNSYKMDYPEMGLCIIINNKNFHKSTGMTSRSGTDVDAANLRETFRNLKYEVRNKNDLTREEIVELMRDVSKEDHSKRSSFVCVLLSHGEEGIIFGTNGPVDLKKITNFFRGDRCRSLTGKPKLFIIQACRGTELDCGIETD
Caspase-3, sequence (P42574 176-277 limits assumed, species assumed): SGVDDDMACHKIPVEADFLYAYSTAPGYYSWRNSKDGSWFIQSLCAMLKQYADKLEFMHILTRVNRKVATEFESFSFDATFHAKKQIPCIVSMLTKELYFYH

COCCOc1nc(-c2ccc(Cl)c(Cl)c2)n(-c2ccc(NC(=O)CCl)cc2)n1 [MI-2]
IC50 [1]: ~5 µM | activity against Caspase-3 [2]: little activity | response of cell number and viability [3]: two of the non-GCB cases responded; also recorded: One of the non-GCB did not respond | covalent binding to MALT1 ([4]; LC-MS): bind covalently | increase of the major peak of MALT1 upon incubation ([4]; LC-MS, 55,988.4 Da shifted to 56,407.5 Da): 419.1 Da
